Experimental data published in article PMC8780964, “Evaluation of the Pharmacokinetics of the Pancreastatin Inhibitor PSTi8 Peptide in Rats: Integration of In Vitro and In Vivo Findings” (Molecules, 2022).
Entries after “also recorded” stand apart in the source; their conditions may differ. Read-outs that look alike come from different tables or passages of the source. Ends that are not written are not given here.

What was measured:
[1] = Microsomal metabolic stability study; assay type: in vitro ADME, SD rats
Protocol: RLM was prepared from SD rats from our lab, as previously reported. In vitro metabolic stability of PSTi8 was determined using RLM. The reaction milieu was prepared by adding 50 mM Tris buffer (pH 7.4), 40 mM MgCl2 pre-incubated at 37 °C along with RLM (0.5 mg/mL) and spiked at a concentration (5 µM) of PSTi8. The reaction was started with NADPH (1 mM) and without NADPH (negative control using Tris buffer). A total of 100 µL samples were collected at 0, 5, 15, 30, 45 and 60 min, and the reaction was quenched with liquid nitrogen. Samples were processed with the SPE procedure and analyzed using the LC-MS/MS method. Negative control was used to assess the peptide stability in the reaction milieu and the positive control (Testosterone, 25 µM) was incubated to obtain the microsomal activity.

[2] = Equilibrium solubility in SGF and SIF; assay type: physicochemical
Protocol: The solubility of PSTi8 peptide was conducted using the equilibrium solubility method in SGF (pH 1.2) and SIF (pH 7.4). A total of 50 mg of PSTi8 was added to silanized glass vials containing 1 mL of buffer, and incubated for 1 h at 37 °C in a shaking water bath to attain equilibrium. After incubation, the samples were centrifuged for 10 min at 12,000 g, and supernatant was processed through SPE procedure and used for LC-MS/MS analysis.

Plasma stability study = assay type: in vitro ADME
Protocol: Fresh rat plasma (1 mL) was used and pre-incubated in a shaking water bath at 37 °C for 10 min. PSTi8 was added to rat plasma at a final concentration of 1 or 5 µM and then incubated for […] at 37 °C in a shaking water bath. A total of 100 µL samples were aliquoted at predetermined time points (0, 5, 15, 30, 60, 90, 120 and 240 min), followed by SPE processing and analyzed using the validated LC-MS/MS method. The plasma stability was determined as the % drug remaining at different time points relative to the drug at 0 min [19].

[3] = Plasma protein binding, modified charcoal adsorption method; assay type: in vitro ADME; conditions: rat plasma
Protocol: The protein binding study of the PSTi8 peptide was conducted in rat plasma using the modified charcoal adsorption method. The suspension of dextran-coated charcoal (0.66%) was prepared in the DPBS buffer (pH 7.4) and stirred overnight (18 h), before the study. PSTi8 (2 µM and 5 µM) was prepared in 2.5 mL rat plasma and pre-incubated at 37 ± 0.5 °C for 15 min in a shaking water bath. The exact volume of the charcoal suspension, the same as the plasma, was centrifuged at 3000 g for 15 min to separate DPBS. The supernatant was decanted and the pre-incubated plasma was added to the charcoal pellet-containing tubes. Plasma-containing charcoal tubes were incubated under continuous stirring up to 4 h. A total of 200 µL samples were collected at the time points of 0, 5, 10, 20, 30, 45, 60, 90, 120 and 180 min, and then centrifuged at 11,000 g for 2.5 min. A total of 100 µL supernatant of the centrifuged sample was separated, extracted using SPE and analyzed with LC-MS/MS. The % peptide remaining in the supernatant plasma sample versus time points data was evaluated using the i.v. bolus two-compartment analysis model on Phoenix 6.3 WinNonlin (Pharsight Corporation, Saint Louis, MO, USA). The model is defined by the bi-exponential Equation (1):(1) B(t)=A1exp(−αt)+A2exp(−βt) where B(t) % is the bound peptide remaining at time t and where A1, A2, α and β are constants.

[4] = Stability in rat plasma in different storage conditions (bioanalytical validation); assay type: in vitro ADME
Protocol: A QTRAP-4000 AB Sciex (SCIEX, Concord, ON, Canada) mass spectrometer using an electrospray ionization source tandem with the Shimadzu UFLC system was utilized for the quantitative analysis. Quantification was performed for PSTi8 and IS with positive ionization mode, using prominent selected reaction monitoring transitions as 607.80/771.20 and 342.20/229.10 m/z, respectively. The chromatographic separation of PSTi8 and IS was accomplished on a Phenomenex Aqua 5µ 125A (250 × 4.6 mm) column using an isocratic mode of mobile phase (methanol:0.1 % formic acid, 50:50 % v/v) with 0.4 mL/min flow rate. The analysis run time was 10 min and the injection volume was 10 μL for each sample. Analyst 1.6 software was used to regulate the LC-MS/MS instrument and for data quantification. The plasma sample extraction involved the SPE procedure using MAX cartridges, as previously described. The LC-MS/MS bioanalytical assay of PSTi8 peptide was validated in rat plasma as per the USFDA bioanalytical method validation guidance. The bioanalytical method development and validation of PSTi8 in mice plasma was recently reported. The bioanalytical validation and stability studies were conducted in rat plasma, as described earlier.

[5] = set-up: method as in PMID 31891874; conditions: i.p., mice; cited from earlier work
in vivo [6] = conditions: male, SD, rat, 5 mg/kg
Protocol: (§1) Rats were distributed into three groups and each group contained 6 animals.
(§2) After dosing in rats, blood (250 µL) samples were collected in EDTA containing microcentrifuge tubes at 0.08, 0.16, 0.33, 0.50, 0.75, 1, 2, 3, 4, 5 and 6 h time points. Plasma was separated from the blood after centrifugation and kept in a −80 °C freezer for LC-MS/MS analysis.
(§3) The i.p. and s.c. PK were best described by a one-compartment first-order PK model without lag time. The i.v. PK was well explained by a one-compartment model with a bolus input and first-order elimination rate. The PK parameters include the elimination constant (K10), absorption constant (K01), Tmax, elimination half-life (K10-HL), absorption half-life (K01-HL), Cmax, AUC (stands for model derived AUC0-∞), CL/F, mean residence time (MRT) and Vd/F. The bioavailability of PSTi8 was determined using the ratio between the AUC from i.p. or s.c. and i.v. routes, after normalizing the dose.

in vivo [7] = conditions: male, SD, rat, ip
Protocol: (§4) Male SD rats were utilized in this study and distributed into two groups (each group contained 6 animals). To each group, PSTi8 was administered i.p. at a dose of 10 and 20 mg/kg in rats.
as §2
(§5) The PK parameters of PSTi8 were estimated with a one-compartmental PK model in Phoenix WinNonlin. […] The PK parameters include the elimination constant (K10), absorption constant (K01), Tmax, elimination half-life (K10-HL), absorption half-life (K01-HL), Cmax, AUC (stands for model derived AUC0-∞), CL/F, mean residence time (MRT) and Vd/F. The bioavailability of PSTi8 was determined using the ratio between the AUC from i.p. or s.c. and i.v. routes, after normalizing the dose.

in vivo [8] = conditions: female, SD, rat, ip, 5 mg/kg
Protocol: (§6) Female SD rats were utilized and distributed into two groups (each group contained 6 animals). To each group, a 5 mg/kg dose of PSTi8 was administered i.v. and i.p. for PK determination.
as §2
(§7) The PK parameters of PSTi8 were estimated with a one-compartmental PK model in Phoenix WinNonlin. The i.p. and s.c. PK were best described by a one-compartment first-order PK model without lag time. The i.v. PK was well explained by a one-compartment model with a bolus input and first-order elimination rate. The PK parameters include the elimination constant (K10), absorption constant (K01), Tmax, elimination half-life (K10-HL), absorption half-life (K01-HL), Cmax, AUC (stands for model derived AUC0-∞), CL/F, mean residence time (MRT) and Vd/F. The bioavailability of PSTi8 was determined using the ratio between the AUC from i.p. or s.c. and i.v. routes, after normalizing the dose.

C57Bl/6 mice = conditions: mouse, in vivo; cited from earlier work
[9] = Blood–plasma partitioning study (KRBC/PL)
Protocol: Fresh blood was collected from SD rats and used for the blood–plasma partitioning study. The blood was pre-incubated in a shaking water bath for 10 min at 37 ± 0.5 °C. […] During the study, the fresh rat plasma was separated from the same batch of whole blood. During the incubation time course, 250 µL aliquots of incubated whole blood samples were collected at different time points (0, 15, 30 and 60 min) and centrifuged at 10,000 g for 5 min at RT to obtain the plasma. At each time point, 100 µL aliquot of the reference plasma sample was collected. Both, 100 µL aliquot of generated plasma and reference plasma were processed and analyzed using the LC-MS/MS method. For the determination of hematocrit (Hc), heparinized whole blood (1.0 mL) was taken in a hematocrit tube and centrifuged at 2000 g for 30 min. The Hc for the whole blood was calculated by using Equation (2) [21, 22].

[10] = Dose proportionality PK study, i.p., male SD rats; conditions: for AUC(0-inf) / Cmax / Tmax / half-life: male, SD, rat, plasma, ip
Protocol: as §4, §2, §5

[11] = Gender difference PK study, i.v. and i.p., female SD rats
Protocol: as §6, §2, §7

[12] = PK and bioavailability after i.v., i.p. and s.c. administration in male SD rats; conditions: for K01 (absorption constant) / K10 (elimination constant) / half-life: male SD rats
Protocol: as §1, §2, §3

[13] = female, SD, rat, plasma, ip, 5 mg/kg
[14] = female, SD, rat, plasma, iv, 5 mg/kg
[15] = male, SD, rat, plasma, ip, 5 mg/kg
[16] = male, SD, rat, plasma, iv, 5 mg/kg
[17] = male, SD, rat, plasma, sc, 5 mg/kg

C[C@]12CC[C@H]3[C@@H](CCC4=CC(=O)CC[C@@]43C)[C@@H]1CC[C@@H]2O [testosterone, reference compound]
half-life of positive control ([1]; 25 µM, RLM): within the acceptable in-house limits

PEGKGEQEHSQQKEEEEEMAV-NH2 [PSTi8]
solubility thermodynamic at 1 h ([2]; simulated gastric fluid (SGF) pH 1.2, 37 °C): 9.3 mg/mL
solubility thermodynamic at 1 h ([2]; simulated intestinal fluid (SIF) pH 7.4, 37 °C): 25.8 mg/mL
stability in rat plasma (in words) (Plasma stability study): high stability; also recorded: stable
remaining at 4 h, 1 µM (Plasma stability study; 1 µM, at 4 h, rat plasma, 37 °C, read-out: plasma stability (% drug remaining)): 88.8 ± 3.39%
remaining at 4 h, 5 µM (Plasma stability study; 5 µM, at 4 h, rat plasma, 37 °C, read-out: plasma stability (% drug remaining)): 90.6 ± 6.65%
stability in rat liver microsomes (in words) ([1]; 5 µM, RLM 0.5 mg/mL, NADPH 1 mM): stable; also recorded: high stability
degradation in negative control experiment ([1]; 5 µM, RLM, without NADPH): no degradation
fraction unbound at 2 µM ([3]; 2 µM): 0.264
fraction unbound at 5 µM ([3]; 5 µM): 0.307
fraction unbound ([3]; summary in abstract): < 0.31
Accuracy (%) of stability sample ([4]; 0 h (for all), nominal 30 ng/mL): 102.34%
Accuracy (%) of stability sample ([4]; 0 h (for all), nominal 400 ng/mL): 101.56%
Accuracy (%) of stability sample ([4]; 0 h (for all), nominal 800 ng/mL): 101.70%
Accuracy (%) of stability sample ([4]; Autosampler (4 °C, 12 h), nominal 30 ng/mL): 112.60%
Accuracy (%) of stability sample ([4]; Autosampler (4 °C, 12 h), nominal 400 ng/mL): 94.13%
Accuracy (%) of stability sample ([4]; Autosampler (4 °C, 12 h), nominal 800 ng/mL): 99.90%
Accuracy (%) of stability sample ([4]; Bench-top (2 h), nominal 30 ng/mL): 96.27%
Accuracy (%) of stability sample ([4]; Bench-top (2 h), nominal 400 ng/mL): 96.17%
Accuracy (%) of stability sample ([4]; Bench-top (2 h), nominal 800 ng/mL): 106.70%
Accuracy (%) of stability sample ([4]; Bench-top (6 h), nominal 30 ng/mL): 103.47%
Accuracy (%) of stability sample ([4]; Bench-top (6 h), nominal 400 ng/mL): 93.00%
Accuracy (%) of stability sample ([4]; Bench-top (6 h), nominal 800 ng/mL): 97.97%
Accuracy (%) of stability sample ([4]; Long term (-80°C, 30 days), nominal 30 ng/mL): 110.13%
Accuracy (%) of stability sample ([4]; Long term (-80°C, 30 days), nominal 400 ng/mL): 102.87%
Accuracy (%) of stability sample ([4]; Long term (-80°C, 30 days), nominal 800 ng/mL): 108.03%
Accuracy (%) of stability sample ([4]; Three freeze-thaw cycles, nominal 30 ng/mL): 101.30%
Accuracy (%) of stability sample ([4]; Three freeze-thaw cycles, nominal 400 ng/mL): 106.30%
Accuracy (%) of stability sample ([4]; Three freeze-thaw cycles, nominal 800 ng/mL): 108.77%
stability in rat plasma with diverse storage conditions (in words) ([4]; storage conditions of Table S2): stable
bioavailability [5]: 52%
CL/F (in vivo [6]; ip): 10.3 mL/min/kg
Vd/F (in vivo [6]; ip): 0.39 ± 0.06 L/kg
CL/F (in vivo [6]; sc): 12.8 mL/min/kg
Vd/F (in vivo [6]; sc): 0.46 ± 0.09 L/kg
CL/F (in vivo [7]; 10 mg/kg): 5.17 mL/min/kg
Vd/F (in vivo [7]; 10 mg/kg): 0.26 ± 0.09 L/kg
CL/F (in vivo [7]; 20 mg/kg): 3.17 mL/min/kg
Vd/F (in vivo [7]; 20 mg/kg): 0.15 ± 0.03 L/kg
CL/F (in vivo [8]): 9.5 mL/min/kg
Vd/F (in vivo [8]): 0.26 ± 0.01 L/kg
toxicity finding (C57Bl/6 mice): safe and non-toxic
RBC:plasma partition coefficient (KRBC/PL) ([9]; 0.206 µM, time not given): 2.46 ± 0.44
blood–plasma partitioning ([9]; summary in abstract): > 2
K01 (absorption constant) ([10]; i.p. 10 mg/kg, male SD rats): 4.89 ± 1.74 h⁻¹
K10 (elimination constant) ([10]; i.p. 10 mg/kg, male SD rats): 1.33 ± 0.60 h⁻¹
K01 (absorption constant) ([10]; i.p. 20 mg/kg, male SD rats): 4.94 ± 0.97 h⁻¹
K10 (elimination constant) ([10]; i.p. 20 mg/kg, male SD rats): 1.26 ± 0.18 h⁻¹
PK pattern in dose proportionality study ([10]; i.p. 10 and 20 mg/kg, male SD rats): non-linear PK; also recorded: non-linear pharmacokinetics
AUC(0-inf) ([10]; 10 mg/kg): 32400 ng·h/mL
Cmax ([10]; 10 mg/kg): 24300 ng/mL
Tmax ([10]; 10 mg/kg): 22.8 min
half-life ([10]; 10 mg/kg, K01-HL (absorption half-life), i.p. 10 mg/kg, male SD rats): 9 ± 3 min
half-life ([10]; 10 mg/kg, K10-HL (elimination half-life), i.p. 10 mg/kg, male SD rats): 35.4 ± 13.8 min
AUC(0-inf) ([10]; 20 mg/kg): 111000 ng·h/mL
Cmax ([10]; 20 mg/kg): 85600 ng/mL
Tmax ([10]; 20 mg/kg): 22.8 min
half-life ([10]; 20 mg/kg, K01-HL (absorption half-life), i.p. 20 mg/kg, male SD rats): 8.4 ± 1.8 min
half-life ([10]; 20 mg/kg, K10-HL (elimination half-life), i.p. 20 mg/kg, male SD rats): 33.6 ± 5.4 min
AUC [11, 13]: 9980 ± 523 ng·h/mL
AUC(0-inf) [11, 13]: 8820 ± 589 ng·h/mL
Cmax [11, 13]: 7000 ± 216 ng/mL
Tmax [11, 13]: 28.8 min
bioavailability [11, 13]: 91.9 ± 6.14%
half-life [11, 13]: 19.2 ± 1.2 min
AUC(0-inf) [11, 14]: 9590 ± 1750 ng·h/mL
Cmax [11, 14]: 42600 ng/mL
MRT [11, 14]: 13.2 ± 1.2 min
half-life [11, 14]: 9.6 ± 1.2 min
K01 (absorption constant) ([11]; i.p. 5 mg/kg, female SD rats): 2.14 ± 0.12 h⁻¹
K10 (elimination constant) ([11]; i.p. 5 mg/kg, female SD rats): 2.19 ± 0.18 h⁻¹
K10-HL (elimination half-life) ([11]; i.p. 5 mg/kg, female SD rats): 0.32 ± 0.02 h
K10 (elimination constant) ([11]; i.v. 5 mg/kg, female SD rats): 4.50 ± 0.48 h⁻¹
gender difference in PK parameters and bioavailability ([11]; male vs female SD rats, 5 mg/kg i.p. and i.v., 5 mg/kg): no gender differences; also recorded: no significant difference
K01 (absorption constant) ([12]; i.p. 5 mg/kg): 2.90 ± 0.89 h⁻¹
K10 (elimination constant) ([12]; i.p. 5 mg/kg): 1.63 ± 0.33 h⁻¹
K10 (elimination constant) ([12]; i.v. 5 mg/kg): 3.79 ± 2.19 h⁻¹
AUC(0-inf) [12, 15]: 8100 ± 1040 ng·h/mL
Cmax [12, 15]: 6050 ± 348 ng/mL
Tmax [12, 15]: 28.8 min
bioavailability [12, 15]: 95 ± 12.2%
half-life ([12]; male, SD, rat, plasma, ip, 5 mg/kg, K01-HL (absorption half-life), i.p. 5 mg/kg): 15.6 ± 5.4 min
half-life ([12]; male, SD, rat, plasma, ip, 5 mg/kg, K10-HL (elimination half-life), i.p. 5 mg/kg): 26.4 ± 6 min
AUC(0-inf) [12, 16]: 8530 ± 1600 ng·h/mL
Cmax [12, 16]: 30200 ± 14600 ng/mL
MRT [12, 16]: 21.6 ± 15.6 min
half-life ([12]; male, SD, rat, plasma, iv, 5 mg/kg, K10-HL (elimination half-life), i.v. 5 mg/kg): 15 ± 10.8 min
AUC(0-inf) [12, 17]: 6690 ± 1510 ng·h/mL
Cmax [12, 17]: 4110 ± 888 ng/mL
Tmax [12, 17]: 36 min
bioavailability [12, 17]: 78.5 ± 17.7%
half-life ([12]; male, SD, rat, plasma, sc, 5 mg/kg, K01-HL (absorption half-life), s.c. 5 mg/kg): 24.6 ± 0.6 min
half-life ([12]; male, SD, rat, plasma, sc, 5 mg/kg, K10-HL (elimination half-life), s.c. 5 mg/kg): 25.2 ± 0.24 min
K01 (absorption constant) ([12]; s.c. 5 mg/kg): 1.68 ± 0.02 h⁻¹
K10 (elimination constant) ([12]; s.c. 5 mg/kg): 1.66 ± 0.01 h⁻¹
